The text below walks through data of ChEMBL document CHEMBL2440106, “Cloning, characterization, and inhibition studies of a β-carbonic anhydrase from Leishmania donovani chagasi, the protozoan parasite responsible for leishmaniasis” (J Med Chem, 2013).

Test [1] deals with Leishmania amazonensis. The test is described as follows: Antileishmanial activity against promastigote form of Leishmania amazonensis MHOM/BR/76/Ma-5 assessed as parasite growth inhibition at 256 uM after 120 hrs by resazurin dye-based assay relative to control. The note with it: MHOM/BR/76/Ma-5, 120 h, read-out: GI. The format is functional. On the technique in general: The colour change of resazurin is a common sign of viable cells or microbes.

The subject of test [2] is Leishmania chagasi. The test is described as follows: Antileishmanial activity against promastigote form of Leishmania chagasi MHOM/BR/1974/PP75 assessed as parasite growth inhibition at 256 uM after 120 hrs by resazurin dye-based assay relative to control. The format is functional. The note with it: MHOM/BR/1974/PP75, 120 h, read-out: GI.
For test [3], the system named is Leishmania chagasi. The test is described as follows: Antileishmanial activity against promastigote form of Leishmania chagasi assessed as appearance of autophagic vacuoles at 256 uM after 24 hrs by transmission electron microscopic analysis. The format is functional, organism-based.
Test [4] deals with Leishmania chagasi. The test is described as follows: Antileishmanial activity against promastigote form of Leishmania chagasi assessed as marked swelling of vacuoles at 256 uM after 24 hrs by transmission electron microscopic analysis. The format is functional, organism-based.
For test [5], the system named is Leishmania chagasi. The test is described as follows: Antileishmanial activity against promastigote form of Leishmania chagasi assessed as appearance of many number of vacuoles in cytoplasm at 256 uM after 24 hrs by transmission electron microscopic analysis. The format is functional, organism-based.
Test [6] deals with Leishmania chagasi. Briefly: Antileishmanial activity against promastigote form of Leishmania chagasi assessed as accumulation of intracytoplasmic electron-dense granules at 256 uM after 24 hrs by transmission electron microscopic analysis. The format is functional, organism-based.
The subject of test [7] is Leishmania amazonensis. Briefly: Antileishmanial activity against promastigote form of Leishmania amazonensis MHOM/BR/76/Ma-5 assessed as parasite growth inhibition after 120 hrs by resazurin dye-based assay. The format is functional. The note with it: MHOM/BR/76/Ma-5, 120 h.
The subject of test [8] is Leishmania chagasi. The test is described as follows: Antileishmanial activity against promastigote form of Leishmania chagasi MHOM/BR/1974/PP75 assessed as parasite growth inhibition after 120 hrs by resazurin dye-based assay. The format is functional. The note with it: MHOM/BR/1974/PP75, 120 h.
The test system of test [9] is Leishmania amazonensis. Briefly: Antileishmanial activity against promastigote form of Leishmania amazonensis MHOM/BR/76/Ma-5 assessed as parasite growth inhibition at 128 uM after 120 hrs by resazurin dye-based assay relative to control. The format is functional. As to conditions: MHOM/BR/76/Ma-5, 120 h, read-out: GI.
The subject of test [10] is Leishmania chagasi. The test is described as follows: Antileishmanial activity against promastigote form of Leishmania chagasi MHOM/BR/1974/PP75 assessed as parasite growth inhibition at 128 uM after 120 hrs by resazurin dye-based assay relative to control. The format is functional. The note with it: MHOM/BR/1974/PP75, 120 h, read-out: GI.

Converted amounts (≈) assume the structure as drawn. The source made the active and inactive calls. No cut-off for these calls is given here.

On to `COc1cccc(/C=N\NC(=O)Nc2nnc(S)s2)c1`, for which the inhibition of growth at 256 µM in test [1] was 76.4%; in [2], 32.2%.

Take `O=C(N/N=C\c1ccc(Cl)cc1)Nc1nnc(S)s1`: the results for the inhibition of growth at 256 µM in test [1] and in [2] were 62.3% and 51.5%, respectively.

As for `C/C(=N/NC(=O)Nc1nnc(S)s1)c1ccc(Cl)cc1`, the inhibition of growth at 256 µM in test [1] turned out to be 7%; in test [2], 0%.

For the compound `O=C(N/N=C1\C(=O)Nc2ccccc21)Nc1n[nH]c(=S)s1`, the inhibition of growth at 256 µM in test [1] and in test [2] was 0% each time.

Turning to `O=C(N/N=C\c1cccc(Br)c1)Nc1nnc(S)s1`, the result in test [3], in [4], in [5] and in test [6] was Active. In addition, the MIC in test [7] and in test [8] was 256 µM (≈ 91.7 µg/mL) each time. Besides, the inhibition of growth at 128 µM is 28% in test [9] and 30% in test [10]. In addition, the figures for the inhibition of growth at 256 µM in test [1] and in test [2] were 97% and 100%, respectively.

On to `C/C(CC(C)C)=N/NC(=O)Nc1nnc(S)s1`, for which the inhibition of growth at 256 µM worked out at 91.9% in test [1] and 74.8% in [2].

As for `O=C(N/N=C\c1ccccc1)Nc1nnc(S)s1`, the inhibition of growth at 256 µM in test [1] was found to be 45.8%; in test [2], 36.3%.

Consider `O=C(N/N=C1\C(=O)Nc2ccc(Br)cc21)Nc1n[nH]c(=S)s1`, for which the inhibition of growth at 256 µM in test [1] and in test [2] was 0% throughout.

For `O=C(N/N=C\c1ccc(F)cc1)Nc1nnc(S)s1`, the inhibition of growth at 256 µM in [1] is 56%; in [2], 18%.

For orientation: MIC means the least concentration at which growth counts as inhibited.
